Assay results: patent US20120015961A1, “ISOTHIOUREA DERIVATIVES OR ISOUREA DERIVATIVES HAVING BACE1 INHIBITORY ACTIVITY” (SHIONOGI & CO., LTD., priority 2009, published 2012)

Experiments:
Recombinant human BACE1 = molecular target: T1, Recombinant human BACE1 (Homo sapiens, UniProt P56817); assay: Assay of BACE1 inhibiting activity; format: biochemical; settings: 50% inhibitory concentration against enzymatic activity, pH 5.0, 30° C., 3 hours
T1 construct: purchased R&D Systems
Description: 48.5 μL of substrate peptide solution (Biotin-XSEVNLDAEFRHDSGC-Eu: Xεε-amino-n-capronic acid, Eu=Europium cryptate) was added to each well of 96-hole half-area plate (a black plate: Costar Corporation), and after addition of 0.5 μl of the test compound (dissolved in […]) and 1 μl of Recombinant human BACE1 (R&D Systems), the reaction mixture was incubated at 30° C. for 3 hours. The substrate peptide was synthesized by reacting Cryptate TBPCOOH mono SMP (CIS bio international) with Biotin-XSEVNLDAEFRHDSGC (Peptide Institute, Inc.). The final concentrations of the substrate peptide and Recombinant human BACE1 were adjusted to 18 nM and 7.4 nM respectively, and the reaction was performed in sodium acetate buffer (50 mM sodium acetate, pH 5.0, 0.008% Triton X-100). After the completion of reaction, 50 μl of 8.0 μg/ml Streptavidin-XL665 (CIS bio international) dissolved in phosphate buffer (150 mM K2HPO4—KH2PO4, pH 7.0, 0.008% Triton X-100, 0.8 M KF) was added to each well and left stand at 30° C. for an hour. Then, fluorescence intensity was measured (excitation wavelength: 320 nm, measuring wavelength: 620 nm and 665 nm) using Wallac 1420 multilabel counter (Perkin Elmer life sciences). Enzymatic activity was determined from counting ratio of each wavelength (10,000×Count 665/Count 620) and 50% inhibitory concentration against the enzymatic activity was calculated.

[1] = system: Neuroblastoma SH-SY5Y cells (SH/APPwt) with human wild-type β-APP excessively expressed; assay: Measurement of β-amyloid (Aβ) production inhibitory effect in cell; format: cell-based; settings: amount needed to inhibit Aβ production by 50%, 24 hours incubation, Amyloid β1-40 HTRF
Description: Neuroblastoma SH-SY5Y cells (SH/APPwt) with human wild-type β-APP excessively expressed therein were prepared at 8×10^5 cells/mL, and 150 μl portions thereof were inoculated into each well of a 96-well culture plate (Falcon). The cells were cultured for 2 hours at 37° C. in a 5% gaseous carbon dioxide incubator. Then, a solution which had been preliminarily prepared by adding and suspending the test compound (DMSO (dimethyl sulfoxide) solution) so as to be 2 μl/50 μl medium was added to the cell sap. Namely, the final DMSO concentration was 1%, and the amount of the cell culture was 200 μl. After the incubation was performed for 24 hours from the addition of the test compound, 100 μl of the culture supernatant was collected from each fraction. The amount of the Aβ in each fraction was measured.
The […] was measured as follows. 10 μl of a homogeneous time resolved fluorescence (HTRF) measurement reagent (Amyloid β1-40 peptide; IBA Molecular Holding, S.A.) and 10 μl of the culture supernatant were put into a 384-well half area microplate (black microplate, Costar) and mixed with each other, and then left standing overnight at 4° C. while the light was shielded. Then, the fluorescence intensity (excitation wavelength: 337 nm, measurement wavelength: 620 nm and 665 nm) was measured with a Wallac 1420 multilabel counter (Perkin Elmer life sciences). The Aβ amount was determined from the count rate at each measurement wavelength (10000×Count 665/Count 620), and the amount needed to inhibit Aβ production by 50% (IC50) was calculated from at least six different dosages.

T1 sequence (P56817 46-501): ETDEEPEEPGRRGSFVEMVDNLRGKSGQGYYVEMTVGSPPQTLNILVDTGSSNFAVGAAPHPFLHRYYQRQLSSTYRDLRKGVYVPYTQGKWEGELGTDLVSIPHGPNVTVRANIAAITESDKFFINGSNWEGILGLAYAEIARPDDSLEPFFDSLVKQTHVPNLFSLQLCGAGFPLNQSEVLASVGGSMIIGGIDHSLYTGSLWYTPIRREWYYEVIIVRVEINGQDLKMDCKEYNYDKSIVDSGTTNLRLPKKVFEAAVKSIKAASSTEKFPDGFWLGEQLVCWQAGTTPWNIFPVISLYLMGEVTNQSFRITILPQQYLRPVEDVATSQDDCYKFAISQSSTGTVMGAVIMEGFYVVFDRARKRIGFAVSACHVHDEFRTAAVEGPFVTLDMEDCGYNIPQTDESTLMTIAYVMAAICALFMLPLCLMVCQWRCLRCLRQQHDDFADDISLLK

SMILES	IC50 (Recombinant human BACE1) [nM]	IC50 ([1]; Homo sapiens, SH-SY5Y, 24 h) [nM]	IC50 [1] [nM]
CO/C(N)=N/C(c1cccc(NC(=O)c2ccc(C#N)cn2)c1)c1cccc(OC)c1 (centres unmarked) [Compound 53]	≤ 1000	≤ 1000	–
CO/C(N)=N\Cc1cc(NC(=O)c2cnc(OC)cn2)ccc1F [Compound 43]	–	≤ 1000	–
COc1cnc(C(=O)Nc2ccc(F)c(C(C)/N=C(/N)SC)c2)cn1 (centres unmarked) [Compound 26]	–	≤ 1000	–
CO/C(N)=N\C(c1ccc(OC)cc1)c1cccc(NC(=O)c2ccc(C#N)cn2)c1 (centres unmarked) [Compound 57]	≤ 1000	≤ 1000	–
CO/C(N)=N\C(c1ccc(OC)cc1)c1cccc(NC(=O)c2cnc(OC)cn2)c1 (centres unmarked) [Compound 58]	≤ 1000	18	–
CO/C(N)=N\Cc1cc(NC(=O)c2ccc(C#N)cn2)ccc1F [Compound 42]	–	≤ 1000	–
CO/C(N)=N\c1cccc2ccc(NC(=O)c3ccc(C#N)cn3)cc12 [Compound 75]	≤ 1000	≤ 1000	–
CO/C(N)=N/C(C)c1cccc(NC(=O)c2cnc(OC)cn2)c1 (centres unmarked) [Compound 83]	–	≤ 1000	–
CO/C(N)=N/C(C)(c1ccc(F)cc1)c1cccc(NC(=O)c2ccc(C#N)cn2)c1 (single isomer, unassigned) [Compound 101]	≤ 1000	≤ 1000	–
CCCO/C(N)=N\Cc1cccc(NC(=O)c2ccc(C#N)cn2)c1 [Compound 34]	–	≤ 1000	–
CC#CCOc1cnc(C(=O)Nc2cccc(C(/N=C(/N)SC)c3ccc(OC)cc3)c2)cn1 (centres unmarked) [Compound 21]	≤ 1000	≤ 1000	–
CC#CCOc1cnc(C(=O)Nc2ccc(Oc3cccc(OC)c3)c(C/N=C(/N)SC)c2)cn1 [Compound 70]	≤ 1000	≤ 1000	–
CS/C(N)=N\c1c(C)ccc2ccc(NC(=O)c3ccc(C#N)cn3)cc12 [Compound 79]	≤ 1000	≤ 1000	–
CO/C(N)=N/C(c1cccc(F)c1)c1cccc(NC(=O)c2ccc(C#N)cn2)c1 (centres unmarked) [Compound 51]	≤ 1000	≤ 1000	–
CO/C(N)=N/C(C)c1cc(NC(=O)c2ccc(C#N)cn2)ccc1F (centres unmarked) [Compound 84]	–	≤ 1000	–
CO/C(N)=N\C(c1ccc(Cl)cc1)c1cccc(NC(=O)c2cnc(C)cn2)c1 (centres unmarked) [Compound 90]	–	≤ 1000	–
COc1ccc(C(/N=C(/N)SC)c2cccc(NC(=O)c3ncc(Cl)cc3Cl)c2)cc1 (centres unmarked) [Compound 22]	–	≤ 1000	–
CO/C(N)=N\C1(c2cc(NC(=O)c3cnc(OC)cn3)ccc2F)CC1 [Compound 47]	–	≤ 1000	–
COCCO/C(N)=N\Cc1cccc(NC(=O)c2ccc(C#N)cn2)c1 [Compound 35]	–	≤ 1000	–
[2H]C([2H])([2H])Oc1ccc(C(NC(=N)OC)c2cccc(NC(=O)c3ccc(C#N)cn3)c2)cc1 (centres unmarked) [Compound 102]	≤ 1000	≤ 1000	–
CO/C(N)=N/C(C)(c1ccc(OC)cc1)c1cccc(NC(=O)c2ccc(C#N)cn2)c1 (centres unmarked) [Compound 98]	≤ 1000	≤ 1000	–
CC#CCOc1cnc(C(=O)Nc2cccc(C(/N=C(/N)OC)c3ccc(Cl)cc3)c2)cn1 (centres unmarked) [Compound 94]	32	≤ 1000	–
COC(=N)NC(c1ccc(OC(C)C)cc1)c1cccc(NC(=O)c2ccc(C#N)cn2)c1 (centres unmarked) [Compound 95]	≤ 1000	≤ 1000	–
CC#CCOc1cnc(C(=O)Nc2cccc(C/N=C(/N)SCCCO)c2)cn1 [Compound 17]	≤ 1000	≤ 1000	–

SMILES	IC50 (Recombinant human BACE1) [nM]	IC50 ([1]; Homo sapiens, SH-SY5Y, 24 h) [nM]	IC50 [1] [nM]
CC#CCOc1cnc(C(=O)Nc2cccc(C(C)(C)/N=C(/N)SC)c2)cn1 [Compound 64]	–	≤ 1000	–
CO/C(N)=N/Cc1cccc(NC(=O)c2ccc(C#N)cn2)c1 [Compound 33]	–	≤ 1000	–
COCCCO/C(N)=N/Cc1cccc(NC(=O)c2ccc(C#N)cn2)c1 [Compound 37]	–	≤ 1000	–
CO/C(N)=N/C(C)c1cccc(NC(=O)c2ccc(C#N)cn2)c1 (centres unmarked) [Compound 82]	–	≤ 1000	–
CS/C(N)=N\C(C)c1cc(NC(=O)c2ccc(C#N)cn2)ccc1F (centres unmarked) [Compound 27]	–	≤ 1000	–
CO/C(N)=N/C(C)(c1ccc(F)cc1)c1cccc(NC(=O)c2ccc(C#N)cn2)c1 (centres unmarked) [Compound 88]	≤ 1000	–	24
CC#CCOc1cnc(C(=O)Nc2ccc(F)c(C/N=C(/N)SC)c2)cn1 [Compound 16]	≤ 1000	≤ 1000	–
CO/C(N)=N\C(c1cccc(NC(=O)c2ccc(C#N)cn2)c1)C(F)(F)F (centres unmarked) [Compound 99]	–	≤ 1000	–
CC#CCOc1cnc(C(=O)Nc2ccc(Oc3ccccc3)c(C/N=C(/N)SC)c2)cn1 [Compound 68]	≤ 1000	≤ 1000	–
CO/C(N)=N\C(c1cccc(NC(=O)c2ccc(C#N)cn2)c1)c1ccc(OC)c(F)c1 (centres unmarked) [Compound 55]	≤ 1000	≤ 1000	–
COc1ccc(C(/N=C(/N)SC)c2cccc(NC(=O)c3ccc(C#N)cn3)c2)cc1 (centres unmarked) [Compound 23]	–	≤ 1000	–
COC(=N)NC(c1ccc(OCc2ccccc2)cc1)c1cccc(NC(=O)c2ccc(C#N)cn2)c1 (centres unmarked) [Compound 96]	≤ 1000	≤ 1000	–
CO/C(N)=N\C(c1ccc(Cl)cc1)c1cccc(NC(=O)c2ccc(C#N)cn2)c1 (centres unmarked) [Compound 91]	≤ 1000	≤ 1000	–
[2H]C([2H])([2H])Oc1cnc(C(=O)Nc2cccc(C3(/N=C(/N)OC)CC3)c2)cn1 [Compound 97]	≤ 1000	≤ 1000	–
CO/C(N)=N\C(c1ccc(Cl)cc1)c1cccc(NC(=O)c2cnc(OC)cn2)c1 (centres unmarked) [Compound 92]	≤ 1000	≤ 1000	–
CO/C(N)=N\C1(c2cc(NC(=O)c3ccc(C#N)cn3)ccc2F)CC1 [Compound 46]	–	≤ 1000	–
CC#CCOc1cnc(C(=O)Nc2cccc(C3(/N=C(/N)SC)CC3)c2)cn1 [Compound 14]	≤ 1000	≤ 1000	–
CO/C(N)=N\C(c1ccc(Cl)cc1)c1cccc(NC(=O)c2ccc(Cl)cn2)c1 (centres unmarked) [Compound 93]	≤ 1000	≤ 1000	–
CO/C(N)=N\C(c1cccc(NC(=O)c2ccc(C#N)cn2)c1)c1ccc2c(c1)CCO2 (centres unmarked) [Compound 54]	≤ 1000	≤ 1000	–
CC#CCOc1cnc(C(=O)Nc2cccc(C/N=C(/N)SCc3cccnc3)c2)cn1 [Compound 10]	≤ 1000	≤ 1000	–
CO/C(N)=N/C(C)c1cc(NC(=O)c2cnc(OC)cn2)ccc1F (centres unmarked) [Compound 85]	–	≤ 1000	–
CO/C(N)=N\[C@H](c1ccc(F)cc1)c1cccc(NC(=O)c2ccc(C#N)cn2)c1 [Compound 52]	≤ 1000	≤ 1000	–
COc1ccc(C(/N=C(/N)SC)c2cccc(NC(=O)c3cnc(OC)cn3)c2)cc1 (centres unmarked) [Compound 24]	–	≤ 1000	–
